Test results as given in patent US20050197350A1, “Novel quinoline, tetrahydroquinazoline, and pyrimidine derivatives and methods of treatment related to the use thereof” (TAISHO PHARMACEUTICAL CO., LTD., priority 2003, published 2005).

These molecules were tested on MCH receptors (assay: MCH receptor activity class (method not given)). Settings: not given.

Row | class | Compound
1 | 1 | Cc1cc(N(C)C)nc(N[C@H]2CC[C@@H](C(=O)NCc3cccc(I)c3)CC2)n1 [Example 2571, cis-4-{[4-(dimethylamino)-6-methylpyrimidin-2-yl]amino}-N-(3-iodobenzyl)cyclohexanecarboxamide]

Same assay, conditions: MCH receptor activity class 1-3 (percent of control at 10^-7 M or IC50)

Row | Compound | class
2 | Cc1cc(Cl)cc(Cl)c1NC(=S)N[C@H]1CC[C@@H](Nc2nccc(N(C)C)n2)CC1 [compound 2346, N-(2,4-dichloro-6-methylphenyl)-N′-(cis-4-{[4-(dimethylamino)pyrimidin-2-yl]amino}cyclohexyl)thiourea] | 2 (Class 2: The value of percent of control at 10^−7 M was from 40% to 60% or the value of IC′50 was from 50 nM to 200 nM.)
3 | CN(C)c1nc(N[C@H]2CC[C@@H](CNC(=O)Nc3c(Cl)cccc3C(F)(F)F)CC2)nc2c1CCCC2 [compound 2465] | 1 (Class 1: The value of percent of control at 10^−7 M was less than 40% or the value of IC50 was less than 50 nM.)
4 | CN(C)c1ccnc(N[C@H]2CC[C@@H](CNC(=O)Nc3c(Cl)cccc3C(F)(F)F)CC2)n1 [compound 2419] | 1 (Class 1: The value of percent of control at 10^−7 M was less than 40% or the value of IC50 was less than 50 nM.)

Same assay, conditions: MCH receptor; class by percent of control at 10^-7 M or IC50

Row | Compound | class
5 | CN(C)c1nc(N[C@H]2CC[C@@H](NC(=S)Nc3ccccc3F)CC2)nc2c1CCCC2 [compound 1978] | 3 (Class 3 The value of percent of control at 10^−7 M was more than 60% or the value of IC50 was more than 200 nM.)
6 | CN(C)c1cc(N[C@H]2CC[C@@H](NC(=O)c3cc(Cl)sc3Cl)CC2)nc2ccccc12 [compound 83] | 2 (Class 2: The value of percent of control at 10^−7 M was from 40% to 60% or the value of IC′50 was from 50 nM to 200 nM.)
7 | CN(C)c1nc(N[C@H]2CC[C@@H](NC(=S)NCc3ccc(F)cc3)CC2)nc2c1CCCC2 [compound 2015] | 3 (Class 3 The value of percent of control at 10^−7 M was more than 60% or the value of IC50 was more than 200 nM.)

Same assay, conditions: activity class 1-3: percent of control at 10^-7 M or IC50

Row | Compound | class
8 | CN(C)c1ccnc(N[C@H]2CC[C@@H](NCCc3cccc(Cl)c3)CC2)n1 [compound 1514] | 3 (Class 3 The value of percent of control at 10^−7 M was more than 60% or the value of IC50 was more than 200 nM.)
9 | CN(C)c1ccnc(NC2CCC(CNC(=O)OCc3ccccc3)CC2)n1 (stereo not shown) [compound 1651] | 3 (Class 3 The value of percent of control at 10^−7 M was more than 60% or the value of IC50 was more than 200 nM.)

Same assay, conditions: activity class per percent of control at 10^-7 M or IC50

Row | Compound | class
10 | CN(C)c1nc(N[C@H]2CC[C@@H](CNC(=O)c3cn(Cc4ccccc4)c4ccccc34)CC2)nc2c1CCCC2 [compound 1078] | 3 (Class 3 The value of percent of control at 10^−7 M was more than 60% or the value of IC50 was more than 200 nM.)
11 | CN(C)c1cc(N[C@H]2CC[C@@H](NCc3ccc(F)c(Cl)c3)CC2)nc2ccccc12 [compound 1121] | 3 (Class 3 The value of percent of control at 10^−7 M was more than 60% or the value of IC50 was more than 200 nM.)
12 | Cc1ccc(C(=O)c2ccccc2C(=O)N[C@H]2CC[C@@H](Nc3nc4c(c(N(C)C)n3)CCCC4)CC2)cc1 [compound 1035] | 3 (Class 3 The value of percent of control at 10^−7 M was more than 60% or the value of IC50 was more than 200 nM.)

Same assay, conditions: class 1-3 by percent of control at 10^-7 M or IC50

Row | Compound | class
13 | COc1cc(OC)cc(C(=O)NC[C@H]2CC[C@@H](Nc3nccc(N(C)C)n3)CC2)c1 [compound 421] | 3 (Class 3 The value of percent of control at 10^−7 M was more than 60% or the value of IC50 was more than 200 nM.)
14 | CC(=O)OC(C(=O)N[C@H]1CC[C@@H](Nc2nc3c(c(N(C)C)n2)CCCC3)CC1)c1ccccc1 (relative stereo) [compound 528] | 1 (Class 1: The value of percent of control at 10^−7 M was less than 40% or the value of IC50 was less than 50 nM.)

Same assay, conditions: class by percent of control at 10^-7 M or IC50

Row | Compound | class
15 | CN(C)c1cc(N[C@H]2CC[C@@H](NC(=O)C(c3ccc(Cl)cc3)c3ccc(Cl)cc3)CC2)nc2ccccc12 [compound 686] | 2 (Class 2: The value of percent of control at 10^−7 M was from 40% to 60% or the value of IC′50 was from 50 nM to 200 nM.)
16 | COc1cc(OC)c(CNC[C@H]2CC[C@@H](Nc3nc4c(c(N(C)C)n3)CCCC4)CC2)cc1Br [compound 1386] | 3 (Class 3 The value of percent of control at 10^−7 M was more than 60% or the value of IC50 was more than 200 nM.)
17 | CC(NC(=O)N[C@H]1CC[C@@H](Nc2nccc(N(C)C)n2)CC1)c1ccc(Br)cc1 (relative stereo) [compound 2248] | 3 (Class 3 The value of percent of control at 10^−7 M was more than 60% or the value of IC50 was more than 200 nM.)
18 | CN(C)c1cc(N[C@H]2CC[C@@H](NC(=O)c3ccc([N+](=O)[O-])cc3)CC2)nc2ccccc12 [compound 770, N-(cis-4-{[4-(dimethylamino)quinolin-2-yl]amino}cyclohexyl)-4-nitrobenzamide] | 1 (Class 1: The value of percent of control at 10^−7 M was less than 40% or the value of IC50 was less than 50 nM.)
19 | COc1cc(Br)c(CNC[C@H]2CC[C@@H](Nc3nc4c(c(N(C)C)n3)CCCC4)CC2)cc1OC [compound 1433] | 3 (Class 3 The value of percent of control at 10^−7 M was more than 60% or the value of IC50 was more than 200 nM.)
20 | Cc1ccc(CNC[C@H]2CC[C@@H](Nc3cc(N(C)C)c4ccccc4n3)CC2)cc1 [compound 1186] | 3 (Class 3 The value of percent of control at 10^−7 M was more than 60% or the value of IC50 was more than 200 nM.)
21 | CN(C)c1nc(N[C@H]2CC[C@@H](CNC(=O)c3c(F)cccc3F)CC2)nc2c1CCCC2 [compound 664] | 3 (Class 3 The value of percent of control at 10^−7 M was more than 60% or the value of IC50 was more than 200 nM.)
22 | COC(CN[C@H]1CC[C@@H](Nc2cc(N(C)C)c3ccccc3n2)CC1)c1ccccc1 (relative stereo) [compound 1450] | 3 (Class 3 The value of percent of control at 10^−7 M was more than 60% or the value of IC50 was more than 200 nM.)
23 | CN(C)c1nc(N[C@H]2CC[C@@H](NC(=O)Nc3cc(C(F)(F)F)cc(C(F)(F)F)c3)CC2)nc2c1CCCC2 [compound 1811] | 3 (Class 3 The value of percent of control at 10^−7 M was more than 60% or the value of IC50 was more than 200 nM.)
24 | CN(C)c1nc(N[C@H]2CC[C@@H](NC(=O)c3ccc(-c4ccc(Cl)cc4[N+](=O)[O-])o3)CC2)nc2c1CCCC2 [compound 952, 5-(4-chloro-2-nitrophenyl)-N-(cis-4-{[4-(dimethylamino)-5,6,7,8-tetrahydroquinazolin-2-yl]amino}cyclohexyl)-2-furamide] | 1 (Class 1: The value of percent of control at 10^−7 M was less than 40% or the value of IC50 was less than 50 nM.)
25 | Cc1cc(C)c(CCNC[C@H]2CC[C@@H](Nc3nc4c(c(N(C)C)n3)CCCC4)CC2)c(C)c1 [compound 1501] | 3 (Class 3 The value of percent of control at 10^−7 M was more than 60% or the value of IC50 was more than 200 nM.)
26 | CN(C)c1ccnc(N[C@H]2CC[C@@H](NC(=O)Nc3ccccc3-c3ccccc3)CC2)n1 [compound 2214] | 3 (Class 3 The value of percent of control at 10^−7 M was more than 60% or the value of IC50 was more than 200 nM.)
27 | CN(C)c1nc(N[C@H]2CC[C@@H](NC(=O)Nc3ccc(F)c([N+](=O)[O-])c3)CC2)nc2c1CCCC2 [compound 1826] | 3 (Class 3 The value of percent of control at 10^−7 M was more than 60% or the value of IC50 was more than 200 nM.)

Same assay, conditions: class by percent of control at 10^−7 M or IC50

Row | Compound | class
28 | Cc1cnc(N[C@H]2CC[C@@H](NC(=O)c3cccnc3Oc3ccccc3Cl)CC2)nc1N(C)C [compound 2892, 2-(2-chlorophenoxy)-N-(cis-4-{[4-(dimethylamino)-5-methylpyrimidin-2-yl]amino}cyclohexyl)nicotinamide] | 1 (Class 1: The value of percent of control at 10^−7 M was less than 40% or the value of IC50 was less than 50 nM.)
